This is an account of results in US12209145B2, “PCSK9 antagonist compounds” (Merck Sharp & Dohme LLC, priority 2018, dated 2025).

What all share (assay type): binding
The target of test [1] is T1, PCSK9 (Homo sapiens, UniProt Q8NBP7).
T1 construct: Biotinylated PCSK9 was obtained commercially; purchased
Briefly: PCSK9 Alexa FRET Plus TR-FRET assay (displacement of AlexaFluor647 tagged cyclic peptide Reagent B). Particulars: Ki Plus, 0.5 nM biotinylated PCSK9, 960 nM AF cyclic peptide Reagent B; Ki calculated from IC50 and KD of AF peptide. The method, boiled down:
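TR-FRET displacement using 0.5 nM biotinylated PCSK9 with 1.25 nM streptavidin-Eu and 960 nM AlexaFluor-tagged cyclic peptide in pH 7.4 HEPES with CaCl2, at least 2 h at RT. IC50 from sigmoidal fit, converted to Ki using the peptide KD; falling Eu counts flag false positives.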

For test [2], the target named is T1, PCSK9. Briefly: PCSK9 Alexa FRET Standard TR-FRET assay (displacement of AlexaFluor647 tagged cyclic peptide Reagent A). The protocol:
The following is a description of the assays used to determine activity of compounds of the invention, and any comparator compounds reported, toward PCSK9 antagonism. Biotinylated PCSK9 was obtained commercially.
Alexa FRET Standard TR-FRET
A solution containing 1 nM biotinylated PCSK9+2.5 nM Lance Streptavidin Europium (Strep-Eu) is made in 50 mM HEPES pH 7.4, 0.15 M NaCl, 5 mM CaCl2, 0.01% BSA, and 0.01% Surfactant P20. A separate solution containing 40 nM of the AlexaFluor tagged cyclic peptide is made in the same buffer system. An Echo is used to transfer 0.750 ul of compound to an assay plate followed by the addition of 15 ul of PCSK9+Stept-Eu and 15 ul of AF peptide. The final assay volume is 30.750 ul containing 0.5 nM PCSK9, 1.25 nM Strep-Eu, and 20 nM AF cyclic peptide. The reaction is incubated at room temperature for at least two hours prior to fluorescence measurements using an Envision Multilabel Reader. […] values are determined by fitting data to a sigmoidal dose-response curve using nonlinear regression. Ki is then calculated from the IC50 and the KD of AF cyclic peptide. Counts (B-counts) of the europium-labeled PCSK9 are followed to observe if compounds are adversely PCSK9. A fall off of the B-counts likely indicates a false positive of inhibition. Data from this procedure is reported as “A=‘numerical value’ (nanomolar)”
Activity data obtained by one or both of the above-described procedures is reported for selected example compounds of the invention in the following format: Example No.: A (standard TR Fret)=‘numerical value’; P (Alexa Fret plus standard TR Fret)=‘numerical value’/, note that all values reported are nanomolar.

Test [3] deals with T1, PCSK9. Briefly: PCSK9 Alexa FRET Ultra TR-FRET assay (displacement of AlexaFluor647 tagged cyclic peptide). The following applies: Ki Ultra, 0.5 nM biotinylated PCSK9, 960 nM AF cyclic peptide; Ki calculated from IC50 and KD of AF peptide. The method, boiled down:
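Biotinylated PCSK9 (0.5 nM final) with 1.25 nM Strep-Eu and 960 nM AlexaFluor-tagged cyclic peptide in HEPES pH 7.4, NaCl, CaCl2, BSA, P20; ≥2 h at room temperature. IC50 from sigmoidal fit, converted to Ki (nM) using peptide KD; falling Eu counts flag false positives.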

T1 sequence (Q8NBP7 153-692): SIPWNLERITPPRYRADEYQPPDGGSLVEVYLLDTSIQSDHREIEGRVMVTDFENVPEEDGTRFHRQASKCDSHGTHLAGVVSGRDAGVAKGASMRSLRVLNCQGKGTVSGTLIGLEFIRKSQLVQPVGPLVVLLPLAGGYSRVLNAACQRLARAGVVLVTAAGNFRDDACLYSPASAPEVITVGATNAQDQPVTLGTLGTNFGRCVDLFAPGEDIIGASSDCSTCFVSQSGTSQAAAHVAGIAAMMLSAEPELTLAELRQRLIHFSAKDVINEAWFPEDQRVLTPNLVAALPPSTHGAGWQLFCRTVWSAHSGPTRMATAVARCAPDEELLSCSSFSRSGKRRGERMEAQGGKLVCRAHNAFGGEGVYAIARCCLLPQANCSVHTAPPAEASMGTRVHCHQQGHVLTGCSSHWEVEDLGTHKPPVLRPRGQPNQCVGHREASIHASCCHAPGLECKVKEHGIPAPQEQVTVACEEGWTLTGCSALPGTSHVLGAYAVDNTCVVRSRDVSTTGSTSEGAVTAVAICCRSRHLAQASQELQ

On to `COc1ccc(C[C@@H]2NC(=O)[C@H]([C@@H](C)O)NC(=O)[C@@H]3[C@@H]4CCN3C(=O)[C@@H]3Cc5cn(c6ccc(F)cc56)CCCCOc5cc(ccc5CNC(=O)CCC(=O)N[C@@H](C)C(=O)N[C@H](CNC(=O)CCOCCOCC[N+](C)(C)C)C(=O)N[C@@H](Cc5cccc(c5)CNC(=O)CO4)C(=O)N3)CCNC(=O)[C@]3(C)CCCN3C2=O)cc1` [Ex-55], for which the inhibition constant Ki at PCSK9 [1] is 72.4 pM; at PCSK9 [2] it was less than 1260 pM; on PCSK9 [3] it was 238 pM.

With `COc1ccc(C[C@@H]2NC(=O)[C@H]([C@@H](C)O)NC(=O)[C@@H]3[C@@H]4CCN3C(=O)[C@@H]3Cc5cn(c6ccc(F)cc56)CCCCCCN(Cc5ccc(cc5)CCNC(=O)[C@]5(C)CCCN5C2=O)C(=O)CCC(=O)N[C@@H](C)C(=O)N[C@H](CNC(=O)Cc2cccc(OCCC[N+](C)(C)C)c2)C(=O)N[C@@H](Cc2cccc(c2)CNC(=O)CO4)C(=O)N3)cc1` [Ex-56], the Ki was 22.4 pM at PCSK9 [1], less than 1260 pM at PCSK9 [2] and 4.81 pM on PCSK9 [3].

For `COCCC[N+](C)(C)CCCCCC(=O)NC[C@H]1NC(=O)[C@H](C)NC(=O)CCC(=O)N2CCCCCCn3cc(c4cc(F)ccc43)C[C@@H]3NC(=O)[C@H](Cc4cccc(c4)CNC(=O)CO[C@H]4CCN(C3=O)[C@@H]4C(=O)N[C@@H]([C@@H](C)O)C(=O)N[C@@H](Cc3ccc(OC)cc3)C(=O)N3CCC[C@@]3(C)C(=O)NCCc3ccc(cc3)C2)NC1=O` [Ex-57], the results for the Ki on PCSK9 [1], on PCSK9 [2] and at PCSK9 [3] were less than 5.58 pM, less than 1260 pM and 1.62 pM, respectively.

Consider `COCC[N+](C)(C)CCCCCC(=O)NC[C@H]1NC(=O)[C@H](C)NC(=O)CCC(=O)N2CCCCCCn3cc(c4cc(F)ccc43)C[C@@H]3NC(=O)[C@H](Cc4cccc(c4)CNC(=O)CO[C@H]4CCN(C3=O)[C@@H]4C(=O)N[C@@H]([C@@H](C)O)C(=O)N[C@@H](Cc3ccc(OC)cc3)C(=O)N3CCC[C@@]3(C)C(=O)NCCc3ccc(cc3)C2)NC1=O` [Ex-58], for which the figures for the inhibitory constant (Ki) at PCSK9 [1], at PCSK9 [2] and on PCSK9 [3] were 7.73 pM, less than 1260 pM and 1.96 pM, respectively.
